Measurements taken from the supplement of paper PMC10627819.

Key:
Conditions in all cases: main component drawn
B. subtilis 168 [1] = assay: fitness (endpoint OD595 vs no drug) (fraction); higher = more growth
Method in brief: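 Each well of a 384-well plate received 30 µl of culture at OD595 0.01, or 55 µl for S. pneumoniae. TSB, LB Lennox or CY served as media at 37 °C. OD595 was taken every 30 min for 14 h and corrected by subtracting the first reading. Fitness is the optical density at stationary-phase entry divided by the robust mean of no-drug controls, capped at 1.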

B. subtilis 168 [2] = assay: Bliss interaction score (quartile over a dose matrix) (fitness difference); higher = more antagonism (negative = synergy)
Method in brief: (§1)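 Quartiles summarise the Bliss score over technical, biological and donor/recipient replicates, where the score is observed minus expected fitness under a product model. Expected fitness uses single-drug values inferred from combination data. Fitness is OD595 at entry into stationary phase over the plate's robust no-drug mean, capped at 1.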

S. aureus DSM 20231 = assay: as above
Method in brief: as §1

S. aureus Newman = assay: as above
Method in brief: as §1

S. pneumoniae D39V = assay: as above
Method in brief: as §1
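Throughout, for Bliss interaction score (quartile over a dose matrix): first quartile when negative (synergy) and third quartile when positive (antagonism).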

CC[C@H](C)[C@H](N)C1=N[C@H](C(=O)N[C@@H](CC(C)C)C(=O)N[C@H](CCC(=O)O)C(=O)N[C@H](C(=O)N[C@H]2CCCCNC(=O)[C@H](CC(N)=O)NC(=O)[C@@H](CC(=O)O)NC(=O)[C@H](Cc3cnc[nH]3)NC(=O)[C@@H](Cc3ccccc3)NC(=O)[C@H]([C@@H](C)CC)NC(=O)[C@@H](CCCN)NC2=O)[C@@H](C)CC)CS1 [Bacitracin] + CC(=O)NC[C@H]1CN(c2ccc(N3CCOCC3)c(F)c2)C(=O)O1 [Linezolid]
B. subtilis 168 [1], partner 0.0625 µg/mL, one replicate
Conditions | fitness
first compound 37.5 µg/mL | 0.823
first compound 75 µg/mL | 0.749
first compound 150 µg/mL | 0.3

fitness, B. subtilis 168 [1]
Conditions | first compound 37.5 µg/mL | first compound 75 µg/mL | first compound 150 µg/mL
partner 0.125 µg/mL | 0.609 | – | –
partner 0.25 µg/mL | – | 0.13 | 0.0363
partner 0.5 µg/mL | 0.0502 | 0.0304 | 0.0221

Conditions | Bliss interaction score
B. subtilis 168 [2] | -0.0832
S. aureus DSM 20231 | -0.0504
S. aureus Newman | -0.087
S. pneumoniae D39V | -0.0719

CC[C@H](C)[C@H](N)C1=N[C@H](C(=O)N[C@@H](CC(C)C)C(=O)N[C@H](CCC(=O)O)C(=O)N[C@H](C(=O)N[C@H]2CCCCNC(=O)[C@H](CC(N)=O)NC(=O)[C@@H](CC(=O)O)NC(=O)[C@H](Cc3cnc[nH]3)NC(=O)[C@@H](Cc3ccccc3)NC(=O)[C@H]([C@@H](C)CC)NC(=O)[C@@H](CCCN)NC2=O)[C@@H](C)CC)CS1 [Bacitracin] + CCC(C)C1C(=O)NC(=C)C(=O)NC(C(=O)NC(CSCC(C(=O)N1)NC(=O)/C(=C/C)/NC(=O)C(C(C)CC)N)C(=O)NC2C(SCC(NC(=O)CNC(=O)C3CCCN3C2=O)C(=O)NC(CCCCN)C(=O)NC4C(SCC(NC(=O)CNC(=O)C(NC(=O)C(NC(=O)C(NC(=O)CNC4=O)C)CC(C)C)CCSC)C(=O)NC(CC(=O)N)C(=O)NC(CCSC)C(=O)NC(CCCCN)C(=O)NC5C(SCC6C(=O)NC(C(=O)NC(CSC(C(C(=O)N6)NC(=O)C(NC5=O)C)C)C(=O)NC(CO)C(=O)NC(C(C)CC)C(=O)NC(CC7=CN=CN7)C(=O)NC(C(C)C)C(=O)NC(=C)C(=O)NC(CCCCN)C(=O)O)CC8=CN=CN8)C)C)C)CC(C)C [Nisin]
fitness, B. subtilis 168 [1]
Conditions | first compound 37.5 µg/mL | first compound 75 µg/mL | first compound 150 µg/mL
partner 0.5 µg/mL | 0.78 | 0.711 | 0.516
partner 1 µg/mL | 0.754 | 0.575 | 0.269
partner 2 µg/mL | 0.473 | 0.165 | 0.0302

fitness, B. subtilis 168 [1], one replicate
Conditions | partner 1.25 µg/mL | partner 1.6 µg/mL | partner 2.5 µg/mL | partner 3.2 µg/mL | partner 4 µg/mL | partner 5 µg/mL | partner 6.4 µg/mL | partner 8 µg/mL | partner 16 µg/mL
first compound 37.5 µg/mL | 0.807 | 0.409 | 0.293 | 0.0184 | 0.0266 | 0.0118 | 0.0283 | 0.0124 | 0.0057
first compound 75 µg/mL | 0.809 | 0.178 | 0.0249 | 0.0153 | 0.116 | 0.0085 | 0.0276 | 0.0348 | 0.0088
first compound 150 µg/mL | 0.611 | 0.0142 | 0.0156 | 0.0131 | 0.0334 | 0.0106 | 0.0205 | 0.0221 | 0.0151

Conditions | Bliss interaction score
B. subtilis 168 [2] | -0.191
S. aureus DSM 20231 | -0.0406
S. aureus Newman | 0.112
S. pneumoniae D39V | -0.0689

CC[C@H](C)[C@H](N)C1=N[C@H](C(=O)N[C@@H](CC(C)C)C(=O)N[C@H](CCC(=O)O)C(=O)N[C@H](C(=O)N[C@H]2CCCCNC(=O)[C@H](CC(N)=O)NC(=O)[C@@H](CC(=O)O)NC(=O)[C@H](Cc3cnc[nH]3)NC(=O)[C@@H](Cc3ccccc3)NC(=O)[C@H]([C@@H](C)CC)NC(=O)[C@@H](CCCN)NC2=O)[C@@H](C)CC)CS1 [Bacitracin] + CCC[C@@H]1C[C@@H](C(=O)N[C@@H]([C@H]2O[C@H](SC)[C@H](O)[C@@H](O)[C@H]2O)[C@@H](C)O)N(C)C1 [Lincomycin]
fitness, B. subtilis 168 [1]
Conditions | first compound 37.5 µg/mL | first compound 75 µg/mL | first compound 150 µg/mL
partner 0.1 µg/mL | 0.955 | 0.915 | 0.896
partner 0.2 µg/mL | 0.919 | 0.832 | 0.733
partner 0.4 µg/mL | 0.86 | 0.827 | –

fitness, B. subtilis 168 [1], one replicate
Conditions | first compound 37.5 µg/mL | first compound 75 µg/mL | first compound 150 µg/mL
partner 0.8 µg/mL | 0.764 | 0.74 | 0.389
partner 1.6 µg/mL | 0.769 | 0.686 | 0.439

Conditions | Bliss interaction score
B. subtilis 168 [2] | 0.0963
S. aureus DSM 20231 | -0.046
S. aureus Newman | 0.104
S. pneumoniae D39V | -0.0546

CC[C@H](C)[C@H](N)C1=N[C@H](C(=O)N[C@@H](CC(C)C)C(=O)N[C@H](CCC(=O)O)C(=O)N[C@H](C(=O)N[C@H]2CCCCNC(=O)[C@H](CC(N)=O)NC(=O)[C@@H](CC(=O)O)NC(=O)[C@H](Cc3cnc[nH]3)NC(=O)[C@@H](Cc3ccccc3)NC(=O)[C@H]([C@@H](C)CC)NC(=O)[C@@H](CCCN)NC2=O)[C@@H](C)CC)CS1 [Bacitracin] + CN(C)C(=O)C(CCN1CCC(O)(c2ccc(Cl)cc2)CC1)(c1ccccc1)c1ccccc1 [Loperamide]
fitness, B. subtilis 168 [1]
Conditions | first compound 37.5 µg/mL | first compound 75 µg/mL | first compound 150 µg/mL
partner 25 µg/mL | 0.598 | – | –
partner 50 µg/mL | – | 0.0219 | 0.0315
partner 100 µg/mL | 0.0325 | 0.0281 | 0.0237

Conditions | Bliss interaction score
B. subtilis 168 [2] | -0.13
S. aureus DSM 20231 | -0.0677
S. aureus Newman | -0.0942
S. pneumoniae D39V | 0.1

CC[C@H](C)[C@H](N)C1=N[C@H](C(=O)N[C@@H](CC(C)C)C(=O)N[C@H](CCC(=O)O)C(=O)N[C@H](C(=O)N[C@H]2CCCCNC(=O)[C@H](CC(N)=O)NC(=O)[C@@H](CC(=O)O)NC(=O)[C@H](Cc3cnc[nH]3)NC(=O)[C@@H](Cc3ccccc3)NC(=O)[C@H]([C@@H](C)CC)NC(=O)[C@@H](CCCN)NC2=O)[C@@H](C)CC)CS1 [Bacitracin] + CO[C@@H]1[C@@H](OC(N)=O)[C@@H](O)[C@H](Oc2ccc3c(O)c(NC(=O)c4ccc(O)c(CC=C(C)C)c4)c(=O)oc3c2C)OC1(C)C [Novobiocin]
fitness, B. subtilis 168 [1]
Conditions | first compound 37.5 µg/mL | first compound 75 µg/mL | first compound 150 µg/mL
partner 0.0125 µg/mL | ≥ 1 | 0.97 | 0.946
partner 0.025 µg/mL | 0.988 | ≥ 1 | 0.941
partner 0.05 µg/mL | ≥ 1 | 0.964 | 0.935

fitness, B. subtilis 168 [1], one replicate
Conditions | partner 0.1 µg/mL | partner 0.125 µg/mL | partner 0.2 µg/mL | partner 0.25 µg/mL | partner 0.5 µg/mL
first compound 37.5 µg/mL | 0.817 | 0.917 | 0.861 | 0.894 | 0.431
first compound 75 µg/mL | 0.763 | 0.959 | 0.804 | 0.922 | 0.293
first compound 150 µg/mL | 0.534 | 0.861 | 0.63 | 0.559 | 0.164

Conditions | Bliss interaction score
B. subtilis 168 [2] | 0.126
S. aureus DSM 20231 | -0.0399
S. aureus Newman | -0.0809
S. pneumoniae D39V | 0.0678
